The values that follow come from ChEMBL document CHEMBL5512659, “Structure optimizing of flavonoids against both MRSA and VRE” (Eur J Med Chem, 2024).

Converted amounts (≈) assume the structure as drawn. The source made the active and inactive calls. The calls are words filed in the database; no cut-off is given here.

What is called MIC is the least concentration at which growth counts as inhibited.

The first assay has as its system Enterococcus faecalis. Nature of the assay: Antibiofilm activity in multidrug resistant Enterococcus faecalis ATCC 51299 assessed as inhibition of biofilm formation at 4 times MIC by crystal violet staining based analysis relative to control. Format: functional.
Conditions: not given
`CCCCCCc1c(-c2ccc(OCCCCN(C)C)cc2OCCCCN(C)C)oc2cc(OC)cc(O)c2c1=O`: the “inhibition (INH)” value was more than 90%.

A further assay concerns Staphylococcus aureus. Nature of the assay: Antibacterial activity in methicillin resistant Staphylococcus aureus clinical isolate 003 at sub-MIC measured after 20 passages. Format: functional, organism-based.
Conditions: not given
On to `CCCCCCc1c(-c2ccc(OCCCCN(C)C)cc2OCCCCN(C)C)oc2cc(OC)cc(O)c2c1=O`, for which the outcome was Active.

The subject of the next assay is Staphylococcus aureus. Nature of the assay: Bactericidal activity against methicillin-resistant Staphylococcus aureus clinical isolate 003 assessed as inhibition of bacterial growth by measuring ratio of MBC to MIC. Format: functional.
Conditions: not given
Regarding `CCCCCCc1c(-c2ccc(OCCCCN(C)C)cc2OCCCCN(C)C)oc2cc(OC)cc(O)c2c1=O`, the Ratio was less than 4.

A further assay deals with Cell membrane. The experiment in a line: Disruption of membrane permeability in methicillin resistant Staphylococcus aureus clinical isolate 003 assessed as nucleic acid leakage at 2 to 4 times MIC.
Conditions: not given
Regarding `CCCCCCc1c(-c2ccc(OCCCCN(C)C)cc2OCCCCN(C)C)oc2cc(OC)cc(O)c2c1=O`, the result was Active.

For the next assay, the system named is Enterococcus faecalis. The experiment in a line: Antibacterial activity against multidrug resistant Enterococcus faecalis ATCC 51299. Format: functional.
Conditions: not given
In the case of `CCCCCCc1c(-c2ccc(OCCCCN(C)C)cc2OCCCCN(C)C)oc2cc(OC)cc(O)c2c1=O`, 1 µg/mL (≈ 1.72 µM) was the least that counted as inhibitory (MIC).

In another assay the test system is Enterococcus faecalis. Nature of the assay: Antibiofilm activity in multidrug resistant Enterococcus faecalis ATCC 51299 assessed as biofilm clearance rate at 4 times MIC by crystal violet staining based analysis relative to control. Format: functional.
Conditions: not given
`CCCCCCc1c(-c2ccc(OCCCCN(C)C)cc2OCCCCN(C)C)oc2cc(OC)cc(O)c2c1=O`: the Activity is recorded as approximately 80%.

The next assay has as its system Enterococcus faecalis. The experiment in a line: Antibacterial activity against multidrug resistant Enterococcus faecalis ATCC 51299 in presence of cardiolipin.
Conditions: not given
Format: functional, organism-based.
With `CCCCCCc1c(-c2ccc(OCCCCN(C)C)cc2OCCCCN(C)C)oc2cc(OC)cc(O)c2c1=O`, the outcome was inactive.

A further assay concerns Staphylococcus aureus. Nature of the assay: Antibacterial activity against methicillin resistant Staphylococcus aureus clinical isolate 003. Format: functional.
Conditions: not given
On to `CCCCCCc1c(-c2ccc(OCCCCN(C)C)cc2OCCCCN(C)C)oc2cc(OC)cc(O)c2c1=O`, for which it took 0.5 µg/mL (≈ 0.858 µM) to inhibit growth (MIC).

Another assay relates to Staphylococcus aureus. The experiment in a line: Antibacterial activity against methicillin resistant Staphylococcus aureus clinical isolate 003 in presence of cardiolipin. Format: functional, organism-based.
Conditions: not given
As to `CCCCCCc1c(-c2ccc(OCCCCN(C)C)cc2OCCCCN(C)C)oc2cc(OC)cc(O)c2c1=O`, the outcome was inactive.

In the next assay the test system is Cell membrane. Nature of the assay: Disruption of membrane permeability in methicillin resistant Staphylococcus aureus clinical isolate 003 assessed as increase in fluorescence intensity at 4 to 8 times MIC by PI staining based analysis.
Conditions: not given
As to `CCCCCCc1c(-c2ccc(OCCCCN(C)C)cc2OCCCCN(C)C)oc2cc(OC)cc(O)c2c1=O`, the result was Active.

A further assay concerns Cell membrane. Nature of the assay: Disruption of membrane permeability in multidrug resistant Enterococcus faecalis ATCC 51299 assessed as increase in ROS accumulation at 2 to 4 times MIC measured after 1 hr.
Conditions: not given
As to `CCCCCCc1c(-c2ccc(OCCCCN(C)C)cc2OCCCCN(C)C)oc2cc(OC)cc(O)c2c1=O`, the outcome was Active.

The next assay relates to Cell membrane. Nature of the assay: Induction of membrane damage in methicillin resistant Staphylococcus aureus clinical isolate 003 assessed as rupture of bacterial surface at 2 to 4 times MIC by SEM analysis. Format: cell membranes.
Conditions: not given
Turning to `CCCCCCc1c(-c2ccc(OCCCCN(C)C)cc2OCCCCN(C)C)oc2cc(OC)cc(O)c2c1=O`, the result was Active.

For a further assay, the system named is Staphylococcus aureus. Nature of the assay: Antibacterial activity against Staphylococcus aureus clinical isolate 29. Format: functional.
Conditions: not given
Regarding `CCCCCCc1c(-c2ccc(OCCCCN(C)C)cc2OCCCCN(C)C)oc2cc(OC)cc(O)c2c1=O`, the lowest concentration to inhibit growth (MIC) was 0.5 µg/mL (≈ 0.858 µM).

A further assay deals with Enterococcus faecalis. Nature of the assay: Antibacterial activity against multidrug resistant Enterococcus faecalis ATCC 51299 in presence of phosphatidylethanolamine. Format: functional, organism-based.
Conditions: not given
For `CCCCCCc1c(-c2ccc(OCCCCN(C)C)cc2OCCCCN(C)C)oc2cc(OC)cc(O)c2c1=O`, the result was inactive.

The subject of a further assay is Enterococcus faecalis. The experiment in a line: Antibacterial activity against Enterococcus faecalis clinical isolate 7. Format: functional.
Conditions: not given
`CCCCCCc1c(-c2ccc(OCCCCN(C)C)cc2OCCCCN(C)C)oc2cc(OC)cc(O)c2c1=O` yielded an MIC of 1 µg/mL (≈ 1.72 µM).

The test system of a further assay is Cell membrane. Nature of the assay: Disruption of membrane permeability in methicillin resistant Staphylococcus aureus clinical isolate 003 assessed as increase in ROS accumulation at 2 to 4 times MIC measured after 1 hr.
Conditions: not given
With `CCCCCCc1c(-c2ccc(OCCCCN(C)C)cc2OCCCCN(C)C)oc2cc(OC)cc(O)c2c1=O`, the result was Active.

A further assay has as its system Cell membrane. Nature of the assay: Induction of cell membrane damage in multidrug resistant Enterococcus faecalis ATCC 51299 assessed as increase in green fluorescence at 2 to 4 times MIC by SYTOX Green dye based analysis. Format: cell membranes.
Conditions: not given
On to `CCCCCCc1c(-c2ccc(OCCCCN(C)C)cc2OCCCCN(C)C)oc2cc(OC)cc(O)c2c1=O`, for which the result was Active.

For another assay, the system named is Cell membrane. The experiment in a line: Induction of membrane damage in multidrug resistant Enterococcus faecalis ATCC 51299 assessed as deformation of bacterial surface at 2 to 4 times MIC by SEM analysis. Format: cell membranes.
Conditions: not given
As to `CCCCCCc1c(-c2ccc(OCCCCN(C)C)cc2OCCCCN(C)C)oc2cc(OC)cc(O)c2c1=O`, the outcome was Active.

Another assay relates to Cell membrane. Nature of the assay: Induction of membrane damage in multidrug resistant Enterococcus faecalis ATCC 51299 assessed as rupture of bacterial surface at 2 to 4 times MIC by SEM analysis. Format: cell membranes.
Conditions: not given
For the compound `CCCCCCc1c(-c2ccc(OCCCCN(C)C)cc2OCCCCN(C)C)oc2cc(OC)cc(O)c2c1=O`, the outcome was Active.

The subject of a further assay is Enterococcus faecalis. Nature of the assay: Antibacterial activity against multidrug resistant Enterococcus faecalis ATCC 51299 at 2 to 4 times MIC measured after 8 to 12 hrs by time-kill assay. Format: functional, organism-based. The note with it: time 8-12 hrs.
Take `CCCCCCc1c(-c2ccc(OCCCCN(C)C)cc2OCCCCN(C)C)oc2cc(OC)cc(O)c2c1=O`: the outcome was Active.

In another assay the test system is Cell membrane. Nature of the assay: Disruption of membrane permeability in multidrug resistant Enterococcus faecalis ATCC 51299 assessed as increase in fluorescence intensity at 4 to 8 times MIC by PI staining based analysis.
Conditions: not given
With `CCCCCCc1c(-c2ccc(OCCCCN(C)C)cc2OCCCCN(C)C)oc2cc(OC)cc(O)c2c1=O`, the result was Active.
